Measurements taken from patent publication US20260070945A1, “MACROCYCLIC IMMUNOMODULATORS” (Bristol-Myers Squibb Company, priority 2022, published 2026).
pIC50: −log10 of the molar value. *1 amine or outer side, *2 acyl side, *3 side chain or, on linkers, in order; H or OH if unused. Where a SMILES comes first, the peptide text is derived from it. Bridges are numbered along the chain shown (N, C = ends). [ ]: non-standard residue; d: D form. The star is where a group is joined. ξ: configuration not given here. Phe(4-COOH) = N[C@@H](Cc1ccc(C(=O)O)cc1)C(=O)O; Bip = N[C@@H](Cc1ccc(-c2ccccc2)cc1)C(=O)O; Phe(3-Me) = Cc1cccc(C[C@H](N)C(=O)O)c1; γGlu = O=C(O)[C@H](CCC(=O)[*:2])N[*:1]; 3Pal = N[C@@H](Cc1cccnc1)C(=O)O; Cha = N[C@@H](CC1CCCCC1)C(=O)O; Ile(3ξ) = CCC(C)[C@H](N)C(=O)O; Carboxymethyl = O=C(O)C*; NMeA = CN[C@@H](C)C(=O)O; Orn = NCCC[C@H](N)C(=O)O; Aun = NCCCCCCCCCCC(=O)O; Dab = NCC[C@H](N)C(=O)O; AEEA = NCCOCCOCC(=O)O

Target: T1, PD-1/PD-L1 interaction (PE-labeled human PD-L1-Ig binding to Jurkat cell line over-expressing human PD-1) (Homo sapiens, UniProt Q15116)
T1 construct: expressed in transfected cells; host or cells: Jurkat
T1 sequence (Q15116 25-288): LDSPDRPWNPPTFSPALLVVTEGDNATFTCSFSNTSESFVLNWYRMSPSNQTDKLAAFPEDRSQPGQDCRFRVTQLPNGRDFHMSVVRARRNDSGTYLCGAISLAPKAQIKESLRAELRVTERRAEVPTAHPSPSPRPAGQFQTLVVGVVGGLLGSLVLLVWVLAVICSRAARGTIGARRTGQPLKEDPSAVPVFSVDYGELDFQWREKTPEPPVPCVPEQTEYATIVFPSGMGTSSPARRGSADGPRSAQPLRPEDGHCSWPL
Experiment: Jurkat-PD-1 Cell Binding High-Content Screening Assay (CBA)
Details: Jurkat-hPD-1 cells, PE-labeled PD-L1-Ig 20 nM final; read-out: Jurkat HPD1 PDL1 IC50
How it was run: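 Compound is added first to the PD-1-expressing Jurkat cells and held 2 h at 37 °C in serum-containing DMEM. The fluorescent PD-L1 fusion follows at 20 nM final for 1 h. Fixed, Hoechst-stained cells are then imaged for bound label.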

| pIC50 | Compound |
| --- | --- |
| 7.89 | CC(C)C[C@@H]1NC(=O)[C@H](Cc2c[nH]c3ccccc23)NC(=O)[C@H](CC(=O)O)NC(=O)[C@H](Cc2ccc(C(=O)O)cc2)NC(=O)[C@H](Cc2ccc(OCC(=O)O)cc2)NC(=O)CSC[C@@H](C(=O)NCC(=O)N[C@@H](CCCCN)C(=O)NCCCCCCCCCCC(=O)O)NC(=O)[C@H](CO)NC(=O)[C@H](C(C)C)NC(=O)[C@H](CC2CCCCC2)NC(=O)[C@H](CCN)NC(=O)[C@@H](CC(C)C)NC(=O)[C@H](C)N(C)C(=O)[C@H](C(C)C)NC(=O)[C@H](Cc2ccc(-c3ccccc3)cc2)NC1=O [Example 1039] ({CH2CO}-Y(Carboxymethyl)[Phe(4-COOH)]DWL[Bip]V[NMeA][dL][Dab][Cha]VSCGK[Aun]-OH; thioether N-14) |
| 7.11 | CCC(C)[C@@H]1NC(=O)[C@H](Cc2ccc(-c3ccccc3)cc2)NC(=O)[C@H](C(C)C)NC(=O)[C@H](Cc2c[nH]c3ccccc23)NC(=O)[C@H](CC(=O)O)NC(=O)[C@H](Cc2ccc(OCC(=O)O)cc2)NC(=O)[C@H](Cc2cccnc2)NC(=O)CSC[C@@H](C(=O)N[C@H](CC(N)=O)C(=O)NCCOCCOCC(=O)N[C@@H](CCC(=O)N[C@@H](CCCN)C(=O)NCCCCCCCCCCC(=O)O)C(=O)O)NC(=O)[C@H](CO)NC(=O)[C@H](C(C)C)NC(=O)[C@H](CC(C)C)NC(=O)[C@H](CCN)NC(=O)[C@@H](CC(C)C)NC(=O)[C@H](C)N(C)C1=O (stereo partly drawn) [Example 2060] ({CH2CO}-[3Pal]Y(Carboxymethyl)DWV[Bip][Ile(3ξ)][NMeA][dL][Dab]LVSC[dN][AEEA][γGlu][Orn][Aun]-OH; thioether N-14) |
| 7.71 | Cc1cccc(C[C@@H]2NC(=O)[C@H](CC(=O)O)NC(=O)[C@H](Cc3ccc(OCC(=O)O)cc3)NC(=O)[C@H](CC(N)=O)NC(=O)CSC[C@@H](C(=O)N[C@@H](CCN)C(=O)NCCCCCCCCCCC(=O)O)NC(=O)[C@H]([C@@H](C)O)NC(=O)[C@H](C(C)C)NC(=O)[C@H](CC3CCCCC3)NC(=O)[C@H](CCN)NC(=O)[C@@H](CC(C)C)NC(=O)[C@H](C)N(C)C(=O)[C@H](Cc3ccc(O)cc3)NC(=O)[C@H](Cc3ccc(-c4ccccc4)cc3)NC(=O)[C@H](C(C)C)NC2=O)c1 [Example 1322] ({CH2CO}-NY(Carboxymethyl)D[Phe(3-Me)]V[Bip]Y[NMeA][dL][Dab][Cha]VTC[Dab][Aun]-OH; thioether N-14) |
